Data taken from US20230000813A1, “COMPOUND FOR THE TREATMENT OF BOVINE OR SWINE RESPIRATORY DISEASE” (Intervet Inc., priority 2016, published 2023).
In brackets after ≈: the same amount, converted by molar mass. Where two headings read alike, the source gives them in different places.

Key:
Assay in all cases: MIC, broth-microdilution (CLSI VET01-A4)
Format in all cases: cell-based
[1] = system: Mannheimia haemolytica MH 6374 (ATCC 33396, reference strain); conditions: Mannheimia haemolytica MH 6374; for MIC: read-out: MIC MH 6374
Procedure: (§1) The Minimum inhibitory concentrations (MIC) of compounds according to the invention for a number of veterinary bacterial pathogens were determined by the broth-microdilution method according to CLSI document VET01-A4.
(§2) Microdilution trays containing a doubling dilution series of the test compound were used for the tests. The MIC results were interpreted according to the CLSI documents VET01-S3. The lowest concentration of compound at which no visible growth (i.e. no turbidity) detected by the unaided eye was recorded as the MIC.
(§3) The Minimum inhibitory concentrations (MIC) of compounds according to the invention were determined by the broth-microdilution method according to CLSI document VET01-A4.
(§4) Microdilution trays containing a doubling dilution series of the test compound were used for the tests.
(§5) The MIC results were interpreted according to the CLSI documents VET01-S3. The lowest concentration of compound at which no visible growth (i.e. no turbidity) detected by the unaided eye was recorded as the MIC.

[2] = system: Pasteurella multocida PM 6267 (P 2225 (L386), reference strain, mouse infection strain); conditions: Pasteurella multocida PM 6267; for MIC: read-out: MIC PM 6267
Procedure: as §1, §2, §3, §4, §5

[3] = system: Pasteurella multocida PM 12080 (IV102277-0093, BRD field isolate); conditions: Pasteurella multocida PM 12080; for MIC: read-out: MIC PM 12080
Procedure: as §1, §2, §3, §4, §5

[4] = system: Mannheimia haemolytica MH 12587 (1071, BRD field isolate, macrolide-resistance: erm+, E+); conditions: Mannheimia haemolytica MH 12587, macrolide-resistant
Procedure: as §1, §2, §3, §4, §5

[5] = system: Mannheimia haemolytica MH 6357 (M7/2, reference strain, cattle infection strain); conditions: Mannheimia haemolytica MH 6357; for MIC: read-out: MIC MH 6357
Procedure: as §1, §2, §3, §4, §5

[6] = system: Mannheimia haemolytica MH 10720 (154, BRD field isolate); conditions: Mannheimia haemolytica MH 10720; for MIC: read-out: MIC MH 10720
Procedure: as §1, §2, §3, §4, §5

[7] = system: Pasteurella multocida PM 6391 (ATCC 43137, reference strain); conditions: Pasteurella multocida PM 6391; for MIC: read-out: MIC PM 6391
Procedure: as §1, §2, §3, §4, §5

[8] = system: Mannheimia haemolytica MH 13065 (XB0446-6003.9, BRD field isolate)
Procedure: as §1, §2

[9] = system: Mannheimia haemolytica MH 13093 (XB0472-6014.1, BRD field isolate)
Procedure: as §1, §2

## CC(C)(N)C(NC(=O)c1ccc(C#Cc2ccc(CNCc3ccco3)nc2)cc1)C(=O)NO (racemic) [Compound 548]
[1]
  MIC: 0.8 µM (≈ 0.369 µg/mL)
[2]
  MIC: 1.6 µM (≈ 0.738 µg/mL)
[3]
  MIC PM 12080: <=0.1 μM
[4]
  MIC MH 12587: 1.6 µM (≈ 0.738 µg/mL)
[5]
  MIC: 1.6 µM (≈ 0.738 µg/mL)
[6]
  MIC: 0.2 µM (≈ 0.0923 µg/mL)
[7]
  MIC: 0.2 µM (≈ 0.0923 µg/mL)
[8]
  MIC: 0.8 µM (≈ 0.369 µg/mL)
[9]
  MIC: 1.6 µM (≈ 0.738 µg/mL)

## CC(C)(N)C(NC(=O)c1ccc(C#Cc2ccc(CNCc3cccs3)nc2)cc1)C(=O)NO (racemic) [Compound 549]
[1]
  MIC: 0.4 µM (≈ 0.191 µg/mL)
[2]
  MIC: 0.8 µM (≈ 0.382 µg/mL)
[3]
  MIC PM 12080: <=0.1 μM
[4]
  MIC MH 12587: 1.6 µM (≈ 0.764 µg/mL)
[5]
  MIC: 0.8 µM (≈ 0.382 µg/mL)
[6]
  MIC: 0.4 µM (≈ 0.191 µg/mL)
[7]
  MIC PM 6391: <=0.1 μM
[8]
  MIC: 0.8 µM (≈ 0.382 µg/mL)
[9]
  MIC: 1.6 µM (≈ 0.764 µg/mL)

## CC(C)(N)C(NC(=O)c1ccc(C#Cc2ccc(CNCc3ccco3)cc2)cc1)C(=O)NO (stereo not drawn) [C. 518]
[1]
  MIC: 0.4 µM (≈ 0.184 µg/mL)
[2]
  MIC: 0.8 µM (≈ 0.368 µg/mL)
[3]
  MIC PM 12080: <=0.1 μM
[4]
  MIC MH 12587: 0.8 µM (≈ 0.368 µg/mL)
[5]
  MIC: 0.8 µM (≈ 0.368 µg/mL)
[6]
  MIC MH 10720: <=0.1 μM
[8]
  MIC: 0.8 µM (≈ 0.368 µg/mL)
[9]
  MIC: 0.8 µM (≈ 0.368 µg/mL)

## CC(C)(N)C(NC(=O)c1ccc(C#Cc2ccc(CNC3CC3)s2)cc1)C(=O)NO (stereo not drawn) [C. 521]
[1]
  MIC: 0.4 µM (≈ 0.171 µg/mL)
[2]
  MIC: 0.8 µM (≈ 0.341 µg/mL)
[3]
  MIC PM 12080: <=0.1 μM
[4]
  MIC MH 12587: 0.8 µM (≈ 0.341 µg/mL)
[5]
  MIC: 0.8 µM (≈ 0.341 µg/mL)
[6]
  MIC MH 10720: <=0.1 μM
[7]
  MIC PM 6391: <=0.1 μM
[8]
  MIC: 1.6 µM (≈ 0.682 µg/mL)
[9]
  MIC: 0.8 µM (≈ 0.341 µg/mL)

## CC(C)(N)C(NC(=O)c1ccc(C#Cc2ccc([N+](=O)[O-])cc2)cc1)C(=O)NO (stereo not drawn) [C. 552, N-[2-amino-1-(hydroxycarbamoyl)-2-methyl-propyl]-4-[2-(4-nitrophenyl)ethynyl]benzamide]
[1]; ATCC33396
  MIC: 0.2 µM (≈ 0.0793 µg/mL)
[2]
  MIC: 0.8 µM (≈ 0.317 µg/mL)
[3]
  MIC: ≤ 0.1 µM
[5]
  MIC: 0.8 µM (≈ 0.317 µg/mL)
[6]
  MIC: 0.2 µM (≈ 0.0793 µg/mL)
[7]; ATCC43137
  MIC: ≤ 0.1 µM
[8]
  MIC: 0.8 µM (≈ 0.317 µg/mL)
[9]
  MIC: 0.8 µM (≈ 0.317 µg/mL)

## CC(C)(N)C(NC(=O)c1ccc(C#Cc2ccc(N)cc2)cc1)C(=O)NO (stereo not drawn) [C. 553, N-(3-amino-1-(hydroxyamino)-3-methyl-1-oxobutan-2-yl)-4-((4-aminophenyl)ethynyl)benzamide]
[1]; ATCC33396
  MIC: 0.4 µM (≈ 0.147 µg/mL)
[2]
  MIC: 0.8 µM (≈ 0.293 µg/mL)
[3]
  MIC: ≤ 0.1 µM
[5]
  MIC: 0.8 µM (≈ 0.293 µg/mL)
[6]
  MIC: 0.2 µM (≈ 0.0733 µg/mL)
[7]; ATCC43137
  MIC: ≤ 0.1 µM
[8]
  MIC: 1.6 µM (≈ 0.586 µg/mL)
[9]
  MIC: 0.8 µM (≈ 0.293 µg/mL)

## C#CCNCc1ccc(C#Cc2ccc(C(=O)N[C@H](C(=O)NO)[C@@H](C)O)cc2)s1 [Compound 479]
[1]
  MIC: 0.2 µM (≈ 0.0823 µg/mL)
[2]
  MIC PM 6267: <=0.1 μM
[3]
  MIC PM 12080: <=0.1 μM
[4]
  MIC MH 12587: 0.8 µM (≈ 0.329 µg/mL)
[5]
  MIC MH 6357: <=0.1 μM
[6]
  MIC MH 10720: <=0.1 μM
[7]
  MIC PM 6391: <=0.1 μM
[9]
  MIC: 0.8 µM (≈ 0.329 µg/mL)

## CSCCNCc1ccc(C#Cc2ccc(C(=O)N[C@H](C(=O)NO)[C@@H](C)O)cc2)s1 [Compound 482]
[1]
  MIC: 0.4 µM (≈ 0.179 µg/mL)
[2]
  MIC PM 6267: <=0.1 μM
[3]
  MIC PM 12080: <=0.1 μM
[4]
  MIC MH 12587: 0.8 µM (≈ 0.358 µg/mL)
[5]
  MIC: 0.2 µM (≈ 0.0895 µg/mL)
[6]
  MIC MH 10720: <=0.1 μM
[7]
  MIC PM 6391: <=0.1 μM
[9]
  MIC: 0.8 µM (≈ 0.358 µg/mL)

## Cc1cnc(CNCc2ccc(C#Cc3ccc(C(=O)N[C@H](C(=O)NO)[C@@H](C)O)cc3)s2)o1 [Compound 484]
[1]
  MIC: 0.4 µM (≈ 0.187 µg/mL)
[2]
  MIC PM 6267: <=0.1 μM
[3]
  MIC PM 12080: <=0.1 μM
[4]
  MIC MH 12587: 0.8 µM (≈ 0.375 µg/mL)
[5]
  MIC: 0.2 µM (≈ 0.0937 µg/mL)
[6]
  MIC MH 10720: <=0.1 μM
[7]
  MIC PM 6391: <=0.1 μM
[9]
  MIC: 0.8 µM (≈ 0.375 µg/mL)

## C[C@@H](O)[C@H](NC(=O)c1ccc(C#Cc2ccc(CNCc3ccc(F)cc3)s2)cc1)C(=O)NO [Compound 485]
[1]
  MIC MH 6374: <=0.1 μM
[2]
  MIC PM 6267: <=0.1 μM
[3]
  MIC PM 12080: <=0.1 μM
[4]
  MIC MH 12587: 0.4 µM (≈ 0.193 µg/mL)
[5]
  MIC MH 6357: <=0.1 μM
[6]
  MIC MH 10720: <=0.1 μM
[7]
  MIC PM 6391: <=0.1 μM
[9]
  MIC: 0.2 µM (≈ 0.0963 µg/mL)

## C=C(C)CNCc1ccc(C#Cc2ccc(C(=O)N[C@H](C(=O)NO)[C@@H](C)O)cc2)cn1 [Compound 486]
[1]
  MIC: 1.6 µM (≈ 0.676 µg/mL)
[2]
  MIC PM 6267: <=0.1 μM
[3]
  MIC PM 12080: <=0.1 μM
[4]
  MIC MH 12587: 1.6 µM (≈ 0.676 µg/mL)
[5]
  MIC: 0.8 µM (≈ 0.338 µg/mL)
[6]
  MIC: 0.2 µM (≈ 0.0845 µg/mL)
[7]
  MIC PM 6391: <=0.1 μM
[9]
  MIC: 1.6 µM (≈ 0.676 µg/mL)

## C[C@@H](O)[C@H](NC(=O)c1ccc(C#Cc2ccc(CNCC(F)(F)F)nc2)cc1)C(=O)NO [Compound 487]
[1]
  MIC: 1.6 µM (≈ 0.721 µg/mL)
[2]
  MIC PM 6267: <=0.1 μM
[3]
  MIC PM 12080: <=0.1 μM
[4]
  MIC MH 12587: 1.6 µM (≈ 0.721 µg/mL)
[5]
  MIC: 0.4 µM (≈ 0.18 µg/mL)
[6]
  MIC MH 10720: <=0.1 μM
[7]
  MIC PM 6391: <=0.1 μM
[9]
  MIC: 1.6 µM (≈ 0.721 µg/mL)

## Cc1cnc(CNCc2ccc(C#Cc3ccc(C(=O)N[C@H](C(=O)NO)[C@@H](C)O)cc3)cn2)o1 [Compound 495]
[1]
  MIC: 1.6 µM (≈ 0.742 µg/mL)
[2]
  MIC PM 6267: <=0.1 μM
[3]
  MIC PM 12080: <=0.1 μM
[4]
  MIC MH 12587: 1.6 µM (≈ 0.742 µg/mL)
[5]
  MIC: 0.4 µM (≈ 0.185 µg/mL)
[6]
  MIC MH 10720: <=0.1 μM
[7]
  MIC PM 6391: <=0.1 μM
[9]
  MIC: 1.6 µM (≈ 0.742 µg/mL)

## COCCNCc1ccc(C#Cc2ccc(C(=O)NC(C(=O)NO)C(C)(C)N)cc2)s1 (stereo not drawn) [Compound 523]
[1]
  MIC: 0.8 µM (≈ 0.356 µg/mL)
[3]
  MIC PM 12080: <=0.1 μM
[4]
  MIC MH 12587: 1.6 µM (≈ 0.711 µg/mL)
[5]
  MIC: 1.6 µM (≈ 0.711 µg/mL)
[6]
  MIC: 0.4 µM (≈ 0.178 µg/mL)
[7]
  MIC: 0.2 µM (≈ 0.0889 µg/mL)
[8]
  MIC: 1.6 µM (≈ 0.711 µg/mL)
[9]
  MIC: 1.6 µM (≈ 0.711 µg/mL)

## CC(C)(C(NC(=O)c1ccc(C#Cc2ccc(CNC3CC3)cc2)cc1)C(=O)NO)[N+](=O)[O-] (stereo not drawn) [Compound 554]
[1]
  MIC: 0.4 µM (≈ 0.18 µg/mL)
[2]
  MIC: 0.4 µM (≈ 0.18 µg/mL)
[3]
  MIC PM 12080: <=0.1 μM
[4]
  MIC MH 12587: 0.8 µM (≈ 0.36 µg/mL)
[5]
  MIC: 0.4 µM (≈ 0.18 µg/mL)
[6]
  MIC MH 10720: <=0.1 μM
[8]
  MIC: 0.4 µM (≈ 0.18 µg/mL)
[9]
  MIC: 0.4 µM (≈ 0.18 µg/mL)
